The values below come from patent publication US9474790B2, “Stable, protracted GLP-1/glucagon receptor co-agonists for medical use” (Novo Nordisk A/S, priority 2013, dated 2016).

Numbered stars: 1 amine (or outer) side, 2 acyl side, 3 side chain; on linkers, the order of the positions; unused ones are H or OH. Square brackets hold non-standard residues; d marks the D form. Side chains are listed from the residue outwards. Peptide text beside a SMILES is read from it. * marks the point of attachment. C18 diacid = O=C(O)CCCCCCCCCCCCCCCCC(=O)*; γGlu = O=C(O)[C@H](CCC(=O)[*:2])N[*:1]; Ac4c = NC1(C(=O)O)CCC1; AEEA = NCCOCCOCC(=O)O; Aib = CC(C)(N)C(=O)O

The IC50 is the concentration that gives 50% inhibition.

This experiment deals with T1, human GLP-1 receptor (Homo sapiens, UniProt P43220).
T1 construct: expressed in transfected cells; host or cells: BHK cells (parent BHKTS13), clone FCW467-12A/KZ10-1, with CRE luciferase
T1 sequence (P43220 24-463): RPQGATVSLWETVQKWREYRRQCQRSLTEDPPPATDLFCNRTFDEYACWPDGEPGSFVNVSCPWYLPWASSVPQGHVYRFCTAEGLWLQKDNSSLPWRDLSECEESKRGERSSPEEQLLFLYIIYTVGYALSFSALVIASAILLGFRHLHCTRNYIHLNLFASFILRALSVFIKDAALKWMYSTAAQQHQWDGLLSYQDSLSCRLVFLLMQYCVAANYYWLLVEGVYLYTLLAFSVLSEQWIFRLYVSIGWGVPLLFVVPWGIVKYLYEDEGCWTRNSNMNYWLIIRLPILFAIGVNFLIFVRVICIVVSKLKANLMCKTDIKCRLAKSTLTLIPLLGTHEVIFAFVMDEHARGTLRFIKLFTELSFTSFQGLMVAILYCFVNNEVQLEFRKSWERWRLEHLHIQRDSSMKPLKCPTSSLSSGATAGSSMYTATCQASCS
The experiment is described as follows: GLP-1 receptor binding, 125I-GLP-1 displacement SPA on isolated membranes. The note with it: displacement of 125I-GLP-1 from membranes; read-out: IC50 GLP-1R. The procedure, abridged: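 Test derivatives, serially diluted, competed with 125I-GLP-1(7-36)NH2 for the human GLP-1 receptor on BHK membranes, read by WGA-bead scintillation proximity after 2 h at 30°C, pH 7.4 HEPES/EGTA/MgCl2 buffer. Final serum albumin was either ≤0.001% or 2.0%; IC50 from non-linear fit.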
`CC(C)C[C@H](NC(=O)[C@H](Cc1c[nH]c2ccccc12)NC(=O)[C@H](C)NC(=O)[C@@H](NC(=O)[C@H](Cc1ccccc1)NC(=O)[C@H](CCC(=O)O)NC(=O)[C@H](CCCNC(=N)N)NC(=O)[C@H](C)NC(=O)[C@H](CCCNC(=N)N)NC(=O)[C@H](CCCNC(=N)N)NC(=O)[C@H](CO)NC(=O)[C@H](CCC(=O)O)NC(=O)[C@H](CC(C)C)NC(=O)[C@H](Cc1ccc(O)cc1)NC(=O)[C@H](CCCCN)NC(=O)[C@H](CO)NC(=O)[C@H](CC(C)C)NC(=O)[C@H](CC(=O)O)NC(=O)[C@H](CO)NC(=O)[C@@H](NC(=O)[C@H](Cc1ccccc1)NC(=O)[C@@H](NC(=O)CNC(=O)[C@H](Cc1c[nH]cn1)NC(=O)C(C)(C)NC(=O)[C@@H](N)Cc1c[nH]cn1)[C@@H](C)O)[C@@H](C)O)C(C)C)C(=O)N[C@@H](CC(C)C)C(=O)N[C@@H](CCCCNC(=O)CC[C@H](NC(=O)COCCOCCNC(=O)COCCOCCNC(=O)CC[C@H](NC(=O)CC[C@H](NC(=O)CCCCCCCCCCCCCCCCC(=O)O)C(=O)O)C(=O)O)C(=O)O)C(=O)N[C@H](C(N)=O)[C@@H](C)O` [Example 31, N^ε28-[(4S)-4-carboxy-4-[[2-[2-[2-[[2-[2-[2-[[(4S)-4-carboxy-4-[[(4S)-4-carboxy-4-(17-carboxyheptadecanoylamino)butanoyl]amino]butanoyl]amino]ethoxy]ethoxy]acetyl]amino]ethoxy]ethoxy]acetyl]amino]butanoyl]-[Aib2,His3,Leu10,Glu15,Arg20,Glu21,Ala24,Leu27, Lys28]-Glucagon amide] (H-H[Aib]HGTFTSDLSKYLESRRAREFVAWLLK([γGlu-AEEA-AEEA-γGlu-γGlu-C18 diacid])T-NH2; N-terminus assumed): the IC50 was 1.5 nM.

Turning to `CC(C)C[C@H](NC(=O)[C@H](Cc1ccc(O)cc1)NC(=O)[C@H](CCCCN)NC(=O)[C@H](CO)NC(=O)[C@H](CC(C)C)NC(=O)[C@H](CC(=O)O)NC(=O)[C@H](CO)NC(=O)[C@@H](NC(=O)[C@H](Cc1ccccc1)NC(=O)[C@@H](NC(=O)CNC(=O)[C@H](CCC(N)=O)NC(=O)C(C)(C)NC(=O)[C@@H](N)Cc1c[nH]cn1)[C@@H](C)O)[C@@H](C)O)C(=O)N[C@@H](CC(=O)O)C(=O)N[C@@H](CCCCNC(=O)CC[C@H](NC(=O)CC[C@H](NC(=O)COCCOCCNC(=O)COCCOCCNC(=O)CC[C@H](NC(=O)CCCCCCCCCCCCCCCCC(=O)O)C(=O)O)C(=O)O)C(=O)O)C(=O)N[C@@H](CCCNC(=N)N)C(=O)N[C@@H](CCCNC(=N)N)C(=O)N[C@@H](C)C(=O)N[C@@H](CCCNC(=N)N)C(=O)N[C@@H](CCC(=O)O)C(=O)N[C@@H](Cc1ccccc1)C(=O)N[C@H](C(=O)N[C@@H](CCC(N)=O)C(=O)N[C@@H](Cc1c[nH]c2ccccc12)C(=O)N[C@@H](CC(C)C)C(=O)N[C@@H](CC(C)C)C(=O)N[C@@H](CC(N)=O)C(=O)N[C@H](C(N)=O)[C@@H](C)O)C(C)C` [Example 10, N^ε16-[(4S)-4-carboxy-4-[[(4S)-4-carboxy-4-[[2-[2-[2-[[2-[2-[2-[[(4S)-4-carboxy-4-(17-carboxyheptadecanoylamino)butanoyl]amino]ethoxy]ethoxy]acetyl]amino]ethoxy]ethoxy]acetyl]amino]butanoyl]amino]butanoyl]-[Aib2,Leu10,Lys16,Arg20,Glu21,Leu27]-Glucagon amide] (H-H[Aib]QGTFTSDLSKYLDK([γGlu-γGlu-AEEA-AEEA-γGlu-C18 diacid])RRAREFVQWLLNT-NH2; N-terminus assumed), the half-maximal inhibitory concentration (IC50) was 0.5 nM.

`CC(C)C[C@H](NC(=O)[C@H](CC(C)C)NC(=O)[C@H](Cc1c[nH]c2ccccc12)NC(=O)[C@H](CCC(N)=O)NC(=O)[C@@H](NC(=O)[C@H](Cc1ccccc1)NC(=O)[C@H](CCC(=O)O)NC(=O)[C@H](CCCNC(=N)N)NC(=O)[C@H](C)NC(=O)[C@H](CCCNC(=N)N)NC(=O)[C@H](CCCNC(=N)N)NC(=O)[C@H](CO)NC(=O)[C@H](CCC(=O)O)NC(=O)[C@H](CC(C)C)NC(=O)[C@H](Cc1ccc(O)cc1)NC(=O)[C@H](CCCCN)NC(=O)[C@H](CO)NC(=O)[C@H](CC(C)C)NC(=O)[C@H](CC(=O)O)NC(=O)[C@H](CO)NC(=O)[C@@H](NC(=O)[C@H](Cc1ccccc1)NC(=O)[C@@H](NC(=O)CNC(=O)[C@H](CCC(N)=O)NC(=O)C(C)(C)NC(=O)[C@@H](N)Cc1c[nH]cn1)[C@@H](C)O)[C@@H](C)O)C(C)C)C(=O)N[C@@H](CC(N)=O)C(=O)N[C@@H](CCCCNC(=O)CC[C@H](NC(=O)COCCOCCNC(=O)COCCOCCNC(=O)CC[C@H](NC(=O)CC[C@H](NC(=O)CCCCCCCCCCCCCCCCC(=O)O)C(=O)O)C(=O)O)C(=O)O)C(N)=O` [Example 21, N^ε29-[(4S)-4-carboxy-4-[[2-[2-[2-[[2-[2-[2-[[(4S)-4-carboxy-4-[[(4S)-4-carboxy-4-(17-carboxyheptadecanoylamino)butanoyl]amino]butanoyl]amino]ethoxy]ethoxy]acetyl]amino]ethoxy]ethoxy]acetyl]amino]butanoyl]-[Aib2,Leu10,Glu15,Arg20,Glu21,Leu27,Lys29]-Glucagon amide] (H-H[Aib]QGTFTSDLSKYLESRRAREFVQWLLNK([γGlu-AEEA-AEEA-γGlu-γGlu-C18 diacid])-NH2; N-terminus assumed): the half-inhibitory concentration (IC50) worked out at 0.3 nM.

As for `CC(C)C[C@H](NC(=O)[C@H](Cc1ccc(O)cc1)NC(=O)[C@H](CCCCN)NC(=O)[C@H](CO)NC(=O)[C@H](CC(C)C)NC(=O)[C@H](CC(=O)O)NC(=O)[C@H](CO)NC(=O)[C@@H](NC(=O)[C@H](Cc1ccccc1)NC(=O)[C@@H](NC(=O)CNC(=O)[C@H](CCC(N)=O)NC(=O)C(C)(C)NC(=O)[C@@H](N)Cc1c[nH]cn1)[C@@H](C)O)[C@@H](C)O)C(=O)N[C@@H](CCC(=O)O)C(=O)N[C@@H](CO)C(=O)N[C@@H](CCCNC(=N)N)C(=O)N[C@@H](CCCNC(=N)N)C(=O)N[C@@H](C)C(=O)N[C@@H](CCCNC(=N)N)C(=O)N[C@@H](CCC(=O)O)C(=O)N[C@@H](Cc1ccccc1)C(=O)N[C@H](C(=O)N[C@@H](CCC(N)=O)C(=O)N[C@@H](Cc1c[nH]c2ccccc12)C(=O)N[C@@H](CC(C)C)C(=O)N[C@@H](CC(C)C)C(=O)N[C@@H](CCCCNC(=O)CC[C@H](NC(=O)COCCOCCNC(=O)COCCOCCNC(=O)CC[C@H](NC(=O)CC[C@H](NC(=O)CCCCCCCCCCCCCCCCC(=O)O)C(=O)O)C(=O)O)C(=O)O)C(=O)N[C@H](C(N)=O)[C@@H](C)O)C(C)C` [Example 20, N^ε29-[(4S)-4-carboxy-4-[[2-[2-[2-[[2-[2-[2-[[(4S)-4-carboxy-4-[[(4S)-4-carboxy-4-(17-carboxyheptadecanoylamino)butanoyl]amino]butanoyl]amino]ethoxy]ethoxy]acetyl]amino]ethoxy]ethoxy]acetyl]amino]butanoyl]-[Aib2,Leu10,Glu15,Arg20,Glu21,Leu27,Lys28]-Glucagon amide] (H-H[Aib]QGTFTSDLSKYLESRRAREFVQWLLK([γGlu-AEEA-AEEA-γGlu-γGlu-C18 diacid])T-NH2; N-terminus assumed), the 50% inhibitory concentration (IC50) amounted to 0.4 nM.

Consider `CC(C)C[C@H](NC(=O)[C@H](Cc1ccc(O)cc1)NC(=O)[C@H](CCCNC(=N)N)NC(=O)[C@H](CO)NC(=O)[C@H](CC(C)C)NC(=O)[C@H](CC(=O)O)NC(=O)[C@H](CO)NC(=O)[C@@H](NC(=O)[C@H](Cc1ccccc1)NC(=O)[C@@H](NC(=O)CNC(=O)[C@H](CCC(N)=O)NC(=O)C1(NC(=O)[C@@H](N)Cc2c[nH]cn2)CCC1)[C@@H](C)O)[C@@H](C)O)C(=O)N[C@@H](CCC(=O)O)C(=O)N[C@@H](CO)C(=O)N[C@@H](CCCNC(=N)N)C(=O)N[C@@H](CCCNC(=N)N)C(=O)N[C@@H](C)C(=O)N[C@@H](CCCNC(=N)N)C(=O)N[C@@H](CCC(=O)O)C(=O)N[C@@H](Cc1ccccc1)C(=O)N[C@H](C(=O)N[C@@H](CCC(N)=O)C(=O)N[C@@H](Cc1c[nH]c2ccccc12)C(=O)N[C@@H](CC(C)C)C(=O)N[C@@H](CC(C)C)C(=O)N[C@@H](CCCCNC(=O)CC[C@H](NC(=O)CC[C@H](NC(=O)COCCOCCNC(=O)COCCOCCNC(=O)CC[C@H](NC(=O)CC[C@H](NC(=O)CCCCCCCCCCCCCCCCC(=O)O)C(=O)O)C(=O)O)C(=O)O)C(=O)O)C(=O)N[C@H](C(N)=O)[C@@H](C)O)C(C)C` [Example 59, N^ε28-[(4S)-4-carboxy-4-[[(4S)-4-carboxy-4-[[2-[2-[2-[[2-[2-[2-[[(4S)-4-carboxy-4-[[(4S)-4-carboxy-4-(17-carboxyheptadecanoylamino)butanoyl]amino]butanoyl]amino]ethoxy]ethoxy]acetyl]amino]ethoxy]ethoxy]acetyl]amino]butanoyl]amino]butanoyl]-[Acb2,Leu10,Arg12,Glu15,Arg20,Glu21,Leu27,Lys28]-Glucagon amide] (H-H[Ac4c]QGTFTSDLSRYLESRRAREFVQWLLK([γGlu-γGlu-AEEA-AEEA-γGlu-γGlu-C18 diacid])T-NH2; N-terminus assumed), for which the IC50 amounted to 0.2 nM.

Take `CC(C)C[C@H](NC(=O)[C@H](Cc1ccc(O)cc1)NC(=O)[C@H](CCCCN)NC(=O)[C@H](CO)NC(=O)[C@H](CC(C)C)NC(=O)[C@H](CC(=O)O)NC(=O)[C@H](CO)NC(=O)[C@@H](NC(=O)[C@H](Cc1ccccc1)NC(=O)[C@@H](NC(=O)CNC(=O)[C@H](CCC(N)=O)NC(=O)C(C)(C)NC(=O)[C@@H](N)Cc1c[nH]cn1)[C@@H](C)O)[C@@H](C)O)C(=O)N[C@@H](CCC(=O)O)C(=O)N[C@@H](CO)C(=O)N[C@@H](CCCCN)C(=O)N[C@@H](CCCNC(=N)N)C(=O)N[C@@H](C)C(=O)N[C@@H](CCCNC(=N)N)C(=O)N[C@@H](CCC(=O)O)C(=O)N[C@@H](Cc1ccccc1)C(=O)N[C@H](C(=O)N[C@@H](CCC(N)=O)C(=O)N[C@@H](Cc1c[nH]c2ccccc12)C(=O)N[C@@H](CC(C)C)C(=O)N[C@@H](CC(C)C)C(=O)N[C@@H](CCCCNC(=O)CC[C@H](NC(=O)CC[C@H](NC(=O)[C@H](CO)NC(=O)[C@H](CCC(=O)O)NC(=O)[C@H](CO)NC(=O)CC[C@H](NC(=O)CC[C@H](NC(=O)CCCCCCCCCCCCCCCCC(=O)O)C(=O)O)C(=O)O)C(=O)O)C(=O)O)C(=O)N[C@H](C(N)=O)[C@@H](C)O)C(C)C` [Example 52] (H-H[Aib]QGTFTSDLSKYLESKRAREFVQWLLK([γGlu-γGlu-Ser-Glu-Ser-γGlu-γGlu-C18 diacid])T-NH2; N-terminus assumed): the IC50 is 0.2 nM.
